Data reported in PubChem BioAssay (NCI).
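Where inhibition never reached the appropriate level, the endpoint shown equals the highest concentration tested. Otherwise, values were interpolated linearly from a five-concentration, 48-hour dose response in 96-well plates. TGI marks complete inhibition of growth.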

How the values were obtained:
Assay in all cases: growth of human tumour cells (NCI), 48 h
786-0 renal = tested on: 786-0 renal
A498 renal = tested on: A498 renal
A549 NSCLC = tested on: A549 NSCLC
ACHN renal = tested on: ACHN renal
CAKI-1 renal = tested on: CAKI-1 renal
COLO 205 colon = tested on: COLO 205 colon
DLD-1 colon = tested on: DLD-1 colon
DMS 114 small cell lung = tested on: DMS 114 small cell lung
DMS 273 small cell lung = tested on: DMS 273 small cell lung
EKVX NSCLC = tested on: EKVX NSCLC
HCT-116 colon = tested on: HCT-116 colon
HCT-15 colon = tested on: HCT-15 colon
HOP-18 NSCLC = tested on: HOP-18 NSCLC
HOP-62 NSCLC = tested on: HOP-62 NSCLC
HOP-92 NSCLC = tested on: HOP-92 NSCLC
HT29 colon = tested on: HT29 colon
IGROV1 ovarian = tested on: IGROV1 ovarian
K-562 leukemia = tested on: K-562 leukemia
KM12 colon = tested on: KM12 colon
KM20L2 colon = tested on: KM20L2 colon
LOX IMVI melanoma = tested on: LOX IMVI melanoma
M19-MEL melanoma = tested on: M19-MEL melanoma
MALME-3M melanoma = tested on: MALME-3M melanoma
NCI-H23 lung = tested on: NCI-H23 lung
NCI-H460 lung = tested on: NCI-H460 lung
OVCAR-3 ovarian = tested on: OVCAR-3 ovarian
OVCAR-4 ovarian = tested on: OVCAR-4 ovarian
OVCAR-5 ovarian = tested on: OVCAR-5 ovarian
OVCAR-8 ovarian = tested on: OVCAR-8 ovarian
RPMI-8226 leukemia = tested on: RPMI-8226 leukemia
RXF 393 renal = tested on: RXF 393 renal
SF-268 CNS = tested on: SF-268 CNS
SF-295 CNS = tested on: SF-295 CNS
SF-539 CNS = tested on: SF-539 CNS
SK-MEL-2 melanoma = tested on: SK-MEL-2 melanoma
SK-MEL-28 melanoma = tested on: SK-MEL-28 melanoma
SK-MEL-5 melanoma = tested on: SK-MEL-5 melanoma
SN12C renal = tested on: SN12C renal
SNB-19 CNS = tested on: SNB-19 CNS
SNB-75 CNS = tested on: SNB-75 CNS
SNB-78 CNS = tested on: SNB-78 CNS
SW-620 colon = tested on: SW-620 colon
TK-10 renal = tested on: TK-10 renal
U251 CNS = tested on: U251 CNS
UACC-257 melanoma = tested on: UACC-257 melanoma
UACC-62 melanoma = tested on: UACC-62 melanoma
XF 498 CNS = tested on: XF 498 CNS
BT-549 breast = tested on: BT-549 breast
CCRF-CEM leukemia = tested on: CCRF-CEM leukemia
DU-145 prostate = tested on: DU-145 prostate
HCC-2998 colon = tested on: HCC-2998 colon
HL-60(TB) leukemia = tested on: HL-60(TB) leukemia
HS 578T breast = tested on: HS 578T breast
M14 melanoma = tested on: M14 melanoma
MCF7 breast = tested on: MCF7 breast
MDA-MB-231 breast = tested on: MDA-MB-231 breast
MDA-MB-435 = tested on: MDA-MB-435
MDA-N = tested on: MDA-N
MOLT-4 leukemia = tested on: MOLT-4 leukemia
NCI-H226 lung = tested on: NCI-H226 lung
NCI-H522 lung = tested on: NCI-H522 lung
NCI/ADR-RES ovarian = tested on: NCI/ADR-RES ovarian
PC-3 prostate = tested on: PC-3 prostate
SK-OV-3 ovarian = tested on: SK-OV-3 ovarian
SR leukemia = tested on: SR leukemia
T-47D breast = tested on: T-47D breast
UO-31 renal = tested on: UO-31 renal

## C[C@@]12CCCC(=O)N1[C@@H](CO)C(c1ccccc1)O2 (stereo partly specified)
786-0 renal
  TGI: > 100 µM
A498 renal
  TGI: > 100 µM
A549 NSCLC
  TGI: > 100 µM
ACHN renal
  TGI: > 100 µM
CAKI-1 renal
  TGI: > 100 µM
COLO 205 colon
  TGI: > 100 µM
DLD-1 colon
  TGI: > 100 µM
DMS 114 small cell lung
  TGI: > 100 µM
DMS 273 small cell lung
  TGI: > 100 µM
EKVX NSCLC
  TGI: > 100 µM
HCT-116 colon
  TGI: > 100 µM
HCT-15 colon
  TGI: > 100 µM
HOP-18 NSCLC
  TGI: > 100 µM
HOP-62 NSCLC
  TGI: > 100 µM
HOP-92 NSCLC
  TGI: > 100 µM
HT29 colon
  TGI: > 100 µM
IGROV1 ovarian
  TGI: > 100 µM
K-562 leukemia
  TGI: > 100 µM
KM12 colon
  TGI: > 100 µM
KM20L2 colon
  TGI: > 100 µM
LOX IMVI melanoma
  TGI: > 100 µM
M19-MEL melanoma
  TGI: > 100 µM
MALME-3M melanoma
  TGI: > 100 µM
NCI-H23 lung
  TGI: > 100 µM
NCI-H460 lung
  TGI: > 100 µM
OVCAR-3 ovarian
  TGI: > 100 µM
OVCAR-4 ovarian
  TGI: > 100 µM
OVCAR-5 ovarian
  TGI: > 100 µM
OVCAR-8 ovarian
  TGI: > 100 µM
RPMI-8226 leukemia
  TGI: > 100 µM
RXF 393 renal
  TGI: > 100 µM
SF-268 CNS
  TGI: > 100 µM
SF-295 CNS
  TGI: > 100 µM
SF-539 CNS
  TGI: > 100 µM
SK-MEL-2 melanoma
  TGI: > 100 µM
SK-MEL-28 melanoma
  TGI: > 100 µM
SK-MEL-5 melanoma
  TGI: > 100 µM
SN12C renal
  TGI: > 100 µM
SNB-19 CNS
  TGI: > 100 µM
SNB-75 CNS
  TGI: > 100 µM
SNB-78 CNS
  TGI: > 100 µM
SW-620 colon
  TGI: > 100 µM
TK-10 renal
  TGI: > 100 µM
U251 CNS
  TGI: > 100 µM
UACC-257 melanoma
  TGI: > 100 µM
UACC-62 melanoma
  TGI: > 100 µM
XF 498 CNS
  TGI: > 100 µM

## O=C1C=C(N2CCN(c3ccccn3)CC2)C(=O)c2c(O)ccc(O)c21
786-0 renal
  TGI: 42.9 µM
A498 renal
  TGI: 52.2 µM
A549 NSCLC
  TGI: 40.7 µM
ACHN renal
  TGI: > 56.2 µM
BT-549 breast
  TGI: > 100 µM
CAKI-1 renal
  TGI: > 46.4 µM
CCRF-CEM leukemia
  TGI: > 36.8 µM
COLO 205 colon
  TGI: 16 µM
DU-145 prostate
  TGI: > 55.5 µM
EKVX NSCLC
  TGI: > 65.7 µM
HCC-2998 colon
  TGI: 43.1 µM
HCT-116 colon
  TGI: 10.3 µM
HCT-15 colon
  TGI: 39.1 µM
HL-60(TB) leukemia
  TGI: 20.3 µM
HOP-62 NSCLC
  TGI: 47.7 µM
HOP-92 NSCLC
  TGI: > 54.1 µM
HS 578T breast
  TGI: > 70.3 µM
HT29 colon
  TGI: 31.2 µM
IGROV1 ovarian
  TGI: 43.5 µM
K-562 leukemia
  TGI: 36.2 µM
KM12 colon
  TGI: > 46.4 µM
LOX IMVI melanoma
  TGI: > 45 µM
M14 melanoma
  TGI: > 48.2 µM
MALME-3M melanoma
  TGI: 1.63 µM
MCF7 breast
  TGI: 18.6 µM
MDA-MB-231 breast
  TGI: 44.9 µM
MDA-MB-435
  TGI: 1.75 µM
MDA-N
  TGI: 5.76 µM
MOLT-4 leukemia
  TGI: 42.2 µM
NCI-H226 lung
  TGI: > 56.2 µM
NCI-H23 lung
  TGI: 13 µM
NCI-H460 lung
  TGI: 38.1 µM
NCI-H522 lung
  TGI: 41.2 µM
NCI/ADR-RES ovarian
  TGI: 11.5 µM
OVCAR-3 ovarian
  TGI: 20.3 µM
OVCAR-4 ovarian
  TGI: 28.2 µM
OVCAR-5 ovarian
  TGI: > 46.4 µM
OVCAR-8 ovarian
  TGI: > 90.8 µM
PC-3 prostate
  TGI: > 56.2 µM
RPMI-8226 leukemia
  TGI: 41.7 µM
RXF 393 renal
  TGI: 43.4 µM
SF-268 CNS
  TGI: > 56.2 µM
SF-295 CNS
  TGI: 51.5 µM
SF-539 CNS
  TGI: 22.3 µM
SK-MEL-2 melanoma
  TGI: 18.6 µM
SK-MEL-28 melanoma
  TGI: > 56.2 µM
SK-MEL-5 melanoma
  TGI: 4.5 µM
SK-OV-3 ovarian
  TGI: 51.3 µM
SN12C renal
  TGI: 45.2 µM
SNB-19 CNS
  TGI: 78.6 µM
SNB-75 CNS
  TGI: 23.7 µM
SR leukemia
  TGI: > 50.7 µM
SW-620 colon
  TGI: 45.2 µM
T-47D breast
  TGI: > 100 µM
TK-10 renal
  TGI: 45.7 µM
U251 CNS
  TGI: 23 µM
UACC-257 melanoma
  TGI: 23.4 µM
UACC-62 melanoma
  TGI: 16.1 µM
UO-31 renal
  TGI: > 46.4 µM
